# Tests used:
# [1] = Inhibition of Plasmodium falciparum PI4K by pull down assay; set-up: species or system Plasmodium vivax
# [2] = target: Voltage-gated inwardly rectifying potassium channel KCNH2 (Homo sapiens, UniProt Q12809); assay: Inhibition of human ERG by patch clamp method
# Plasmodium falciparum [3] = assay: Antimalarial activity against mefloquine/chloroquine-resistant Plasmodium falciparum asexual blood stage forms; assay type: functional, organism-based
# Plasmodium falciparum [4] = assay: Antimalarial activity against mefloquine/chloroquine-resistant Plasmodium falciparum asexual blood stage forms assessed as parasite clearance time at 10 times EC50; assay type: functional
# Plasmodium falciparum [5] = assay: Antimalarial activity against mefloquine/chloroquine-resistant Plasmodium falciparum asexual blood stage forms assessed as parasite clearance time at 100 times EC50; assay type: functional
# Plasmodium falciparum [6] = assay: Antimalarial activity against Plasmodium falciparum NF54 liver stage form schizonts infected in human hepatocytes assessed as EEF diameter; assay type: functional, organism-based
# Plasmodium cynomolgi [7] = assay: Antimalarial activity against Plasmodium cynomolgi liver stage form infected in human hepatocytes; assay type: functional, organism-based
# Plasmodium falciparum [8] = assay: Antimalarial activity against Plasmodium falciparum 3D7 infected in qd administered po dosed NOD-scid IL-2Rgamma null mouse assessed as reduction in parasite growth after 3 day by flow cytometric analysis; assay type: functional
# Plasmodium falciparum [9] = assay: Antimalarial activity against Plasmodium falciparum 3D7 infected in bid administered po dosed NOD-scid IL-2Rgamma null mouse assessed as reduction in parasite growth after 3 day by flow cytometric analysis; assay type: functional
# [10] = Half life in Beagle dog at 1 mg/kg, iv by LC-MS analysis; assay type: ADME, organism-based, Canis lupus familiaris; details: in vivo
# [11] = Half life in monkey at 1 mg/kg, iv by LC-MS analysis; assay type: ADME, organism-based, Macaca mulatta; details: rhesus monkey, in vivo
# [12] = Plasma clearance in Beagle dog at 1 mg/kg, iv by LC-MS analysis; assay type: ADME, organism-based, Canis lupus familiaris
# [13] = Plasma clearance in monkey at 1 mg/kg, iv by LC-MS analysis; assay type: ADME, organism-based, Macaca mulatta; details: rhesus monkey
# [14] = AUC in Beagle dog at 1 mg/kg, iv by LC-MS analysis; assay type: ADME, organism-based, Canis lupus familiaris; details: in vivo
# [15] = AUC in monkey at 1 mg/kg, iv by LC-MS analysis; assay type: ADME, organism-based, Macaca mulatta; details: rhesus monkey, in vivo
# [16] = Cmax in human at 25 to 1200 mg, po measured up to 480 hrs by HPLC-MS/MS analysis; assay type: ADME, organism-based; details: in vivo
# [17] = Tmax in human at 25 to 1200 mg, po measured up to 480 hrs by HPLC-MS/MS analysis; assay type: ADME, organism-based; details: in vivo
# [18] = Half life in human at 25 to 1200 mg, po measured up to 480 hrs by HPLC-MS/MS analysis; assay type: ADME, organism-based; details: in vivo
# [19] = AUC (0 to infinity) in human at 25 to 1200 mg, po measured up to 480 hrs by HPLC-MS/MS analysis; assay type: ADME, organism-based; details: in vivo
# Plasmodium falciparum [20] = assay: Antimalarial activity against Plasmodium falciparum asexual blood stage form infected in human assessed as parasite clearance half-life at 150 mg, po after 8 days; assay type: functional, organism-based
# Plasmodium falciparum [21] = assay: Antimalarial activity against Plasmodium falciparum asexual blood stage form infected in human assessed as reduction in parasite growth after 10 to 22 days; assay type: functional
# Plasmodium falciparum [22] = assay: Antimalarial activity against Plasmodium falciparum asexual blood stage form infected in human assessed as reduction in parasite growth at 400 mg, po after 72 hrs by blood smear based assay relative to control; assay type: functional; set-up: scale not given: the % may be the effect or the level left
# Plasmodium falciparum [23] = assay: Antimalarial activity against Plasmodium falciparum asexual blood stage form infected in human assessed as reduction in parasite growth at 400 mg, po measured on day 14 by blood smear based assay relative to control; assay type: functional; set-up: scale not given: the % may be the effect or the level left
# Plasmodium falciparum [24] = assay: Antimalarial activity against Plasmodium falciparum asexual blood stage form infected in human assessed as reduction in parasite growth at 400 mg, po measured on day 14 by qPCR analysis relative to control; assay type: functional; set-up: scale not given: the % may be the effect or the level left
# Plasmodium falciparum [25] = assay: Antimalarial activity against Plasmodium falciparum asexual blood stage form infected in human assessed as reduction in parasite growth at 250 mg, po measured on day 14 by blood smear based assay relative to control; assay type: functional; set-up: scale not given: the % may be the effect or the level left
# Plasmodium falciparum [26] = assay: Antimalarial activity against Plasmodium falciparum asexual blood stage form infected in human assessed as parasite clearance half-life; assay type: functional, organism-based
# Plasmodium falciparum [27] = assay: Antimalarial activity against schizont stage of Plasmodium falciparum clinical isolate; assay type: functional, organism-based
# Plasmodium vivax [28] = assay: Antimalarial activity against schizont stage of Plasmodium vivax clinical isolate; assay type: functional, organism-based
# Plasmodium vivax [29] = assay: Antimalarial activity against Plasmodium vivax infected in human erythrocytes assessed as reduction in [3H]-hypoxanthine incorporation incubated for 40 hrs followed by addition of [3H]-hypoxanthine and measured after 4 hrs by liquid scintillation counting method; assay type: functional, organism-based
# [30] = Inhibition of Plasmodium vivax DHODH expressed in Escherichia coli using L-dihydroorotate as substrate
# Plasmodium cynomolgi [31] = assay: Antimalarial activity against schizont stage Plasmodium cynomolgi infected in primary rhesus monkey hepatocytes; assay type: functional, organism-based
# Plasmodium cynomolgi [32] = assay: Antimalarial activity against hypnozoites stage Plasmodium cynomolgi infected in primary rhesus monkey hepatocytes; assay type: functional, organism-based
# [33] = Inhibition of Plasmodium vivax PI4K
# Plasmodium cynomolgi [34] = assay: Antimalarial activity against hypnozoites stage Plasmodium cynomolgi infected in primary rhesus monkey hepatocytes measured on day 5; assay type: functional, organism-based; details: 120 h
# Plasmodium falciparum [35] = assay: Antimalarial activity against early stage Plasmodium falciparum gametocytes by luciferase reporter gene assay; assay type: functional, organism-based
# Plasmodium falciparum [36] = assay: Antimalarial activity against late stage Plasmodium falciparum gametocytes by luciferase reporter gene assay; assay type: functional, organism-based
# Plasmodium falciparum [37] = assay: Antimalarial activity against late stage Plasmodium falciparum gametocytes assessed as reduction in gametogenesis exflagellation after 24 hrs; assay type: functional, organism-based
# Plasmodium falciparum [38] = assay: Antimalarial activity against stage 5 Plasmodium falciparum assessed as reduction in oocyst formation in mosquito midgut pretreated 24 hrs before feeding by standard membrane-feeding assay; assay type: functional, organism-based
# Plasmodium falciparum [39] = assay: Antimalarial activity against stage 5 Plasmodium falciparum assessed as reduction in oocyst formation in mosquito midgut at 1 uM after 24 hrs by standard membrane-feeding assay relative to control; assay type: functional; set-up: scale not given: the % may be the effect or the level left
# Plasmodium berghei = assay: Antimalarial activity against Plasmodium berghei infected in mouse assessed reduction in parasitemia; assay type: functional; set-up: scale not given: the % may be the effect or the level left
# Plasmodium falciparum [40] = assay: Antimalarial activity Plasmodium falciparum infected in po dosed SCID mouse assessed as reduction in parasite growth administered daily for 4 consecutive days and measured on day 7 by flow cytometric analysis; assay type: functional; details: 168 h
# [41] = Plasma clearance in dog; assay type: ADME, Canis lupus familiaris
# [42] = Plasma clearance in mouse; assay type: ADME, organism-based
# [43] = Plasma clearance in rat; assay type: ADME
# [44] = Volume of distribution in dog; assay type: ADME, Canis lupus familiaris; details: in vivo
# [45] = Volume of distribution in mouse; assay type: ADME, organism-based; details: in vivo
# [46] = Volume of distribution in rat; assay type: ADME; details: in vivo
# [47] = Half life in dog; assay type: ADME, Canis lupus familiaris; details: in vivo
# [48] = Half life in monkey; assay type: ADME, Macaca mulatta; details: rhesus monkey, in vivo
# [49] = Half life in mouse; assay type: ADME, organism-based; details: in vivo
# [50] = Half life in rat; assay type: ADME; details: in vivo
# [51] = Oral bioavailability in dog; assay type: ADME, organism-based, Canis lupus familiaris; details: in vivo
# [52] = Oral bioavailability in monkey; assay type: ADME, organism-based, Macaca mulatta; details: rhesus monkey, in vivo
# [53] = Plasma clearance in human at 80 to 100 mg; assay type: ADME
# [54] = Volume of distribution in human at 80 to 100 mg; assay type: ADME
# [55] = Half life in human at 80 to 100 mg; assay type: ADME
# [56] = target: Sodium channel protein type 5 subunit alpha (Homo sapiens, UniProt Q14524); assay: Inhibition of Nav1.5 (unknown origin)
# [57] = target: Voltage-dependent L-type calcium channel subunit alpha-1C (Homo sapiens, UniProt Q13936); assay: Inhibition of Cav1.2 (unknown origin)
# [58] = AUC (0 to infinity) in human at 5 to 120 mg,po; assay type: ADME; details: in vivo
# [59] = Half life in human at 5 to 120 mg,po; assay type: ADME; details: in vivo
# [60] = AUC in human at 5 to 120 mg,po in fed condition; assay type: ADME; details: in vivo
# [61] = AUC in human at 5 to 120 mg,po in fast condition; assay type: ADME; details: in vivo
# [62] = Half life in human at 5 to 120 mg,po in fed condition; assay type: ADME; details: in vivo
# [63] = Half life in human at 5 to 120 mg,po in fast condition; assay type: ADME; details: in vivo
# Plasmodium falciparum [64] = assay: Ex-vivo antimalarial activity against Plasmodium falciparum serum derived from 40 mg, po treated human after 144 hrs; assay type: functional, organism-based
# [65] = Plasmodium falciparum, 3D7, po, 72 h
# Voltage-gated inwardly rectifying potassium channel KCNH2, sequence (Q12809 whole entry): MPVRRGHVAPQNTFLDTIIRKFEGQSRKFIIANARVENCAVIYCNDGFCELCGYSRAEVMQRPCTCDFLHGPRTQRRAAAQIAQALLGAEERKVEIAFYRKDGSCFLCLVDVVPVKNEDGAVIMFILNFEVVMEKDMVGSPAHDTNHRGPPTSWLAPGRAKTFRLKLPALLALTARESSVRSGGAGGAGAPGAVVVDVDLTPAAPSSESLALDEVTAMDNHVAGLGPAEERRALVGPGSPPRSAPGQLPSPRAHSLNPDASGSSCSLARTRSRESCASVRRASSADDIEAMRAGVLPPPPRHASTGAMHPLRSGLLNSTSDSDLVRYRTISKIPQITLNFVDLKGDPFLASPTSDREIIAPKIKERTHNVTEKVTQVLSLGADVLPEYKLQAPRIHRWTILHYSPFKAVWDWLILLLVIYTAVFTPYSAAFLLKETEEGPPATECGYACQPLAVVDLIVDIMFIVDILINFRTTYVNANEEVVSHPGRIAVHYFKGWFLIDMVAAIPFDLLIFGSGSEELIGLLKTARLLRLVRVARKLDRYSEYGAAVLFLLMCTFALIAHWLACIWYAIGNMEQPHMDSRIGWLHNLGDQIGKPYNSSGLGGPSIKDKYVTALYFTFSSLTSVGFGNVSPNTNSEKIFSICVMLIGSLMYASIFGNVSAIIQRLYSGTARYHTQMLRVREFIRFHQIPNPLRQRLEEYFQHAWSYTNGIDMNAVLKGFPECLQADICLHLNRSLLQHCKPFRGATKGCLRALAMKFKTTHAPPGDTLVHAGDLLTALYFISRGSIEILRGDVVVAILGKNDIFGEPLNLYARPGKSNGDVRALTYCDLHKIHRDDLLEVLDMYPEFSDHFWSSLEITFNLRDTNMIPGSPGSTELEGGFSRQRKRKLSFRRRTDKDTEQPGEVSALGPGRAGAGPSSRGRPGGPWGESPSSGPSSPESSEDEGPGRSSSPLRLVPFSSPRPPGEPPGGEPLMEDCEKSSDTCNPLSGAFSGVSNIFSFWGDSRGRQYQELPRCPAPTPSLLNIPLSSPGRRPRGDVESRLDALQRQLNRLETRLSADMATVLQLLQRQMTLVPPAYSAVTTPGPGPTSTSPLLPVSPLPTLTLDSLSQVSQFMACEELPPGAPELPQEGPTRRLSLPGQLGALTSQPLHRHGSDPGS
# Voltage-dependent L-type calcium channel subunit alpha-1C, sequence (Q13936 whole entry): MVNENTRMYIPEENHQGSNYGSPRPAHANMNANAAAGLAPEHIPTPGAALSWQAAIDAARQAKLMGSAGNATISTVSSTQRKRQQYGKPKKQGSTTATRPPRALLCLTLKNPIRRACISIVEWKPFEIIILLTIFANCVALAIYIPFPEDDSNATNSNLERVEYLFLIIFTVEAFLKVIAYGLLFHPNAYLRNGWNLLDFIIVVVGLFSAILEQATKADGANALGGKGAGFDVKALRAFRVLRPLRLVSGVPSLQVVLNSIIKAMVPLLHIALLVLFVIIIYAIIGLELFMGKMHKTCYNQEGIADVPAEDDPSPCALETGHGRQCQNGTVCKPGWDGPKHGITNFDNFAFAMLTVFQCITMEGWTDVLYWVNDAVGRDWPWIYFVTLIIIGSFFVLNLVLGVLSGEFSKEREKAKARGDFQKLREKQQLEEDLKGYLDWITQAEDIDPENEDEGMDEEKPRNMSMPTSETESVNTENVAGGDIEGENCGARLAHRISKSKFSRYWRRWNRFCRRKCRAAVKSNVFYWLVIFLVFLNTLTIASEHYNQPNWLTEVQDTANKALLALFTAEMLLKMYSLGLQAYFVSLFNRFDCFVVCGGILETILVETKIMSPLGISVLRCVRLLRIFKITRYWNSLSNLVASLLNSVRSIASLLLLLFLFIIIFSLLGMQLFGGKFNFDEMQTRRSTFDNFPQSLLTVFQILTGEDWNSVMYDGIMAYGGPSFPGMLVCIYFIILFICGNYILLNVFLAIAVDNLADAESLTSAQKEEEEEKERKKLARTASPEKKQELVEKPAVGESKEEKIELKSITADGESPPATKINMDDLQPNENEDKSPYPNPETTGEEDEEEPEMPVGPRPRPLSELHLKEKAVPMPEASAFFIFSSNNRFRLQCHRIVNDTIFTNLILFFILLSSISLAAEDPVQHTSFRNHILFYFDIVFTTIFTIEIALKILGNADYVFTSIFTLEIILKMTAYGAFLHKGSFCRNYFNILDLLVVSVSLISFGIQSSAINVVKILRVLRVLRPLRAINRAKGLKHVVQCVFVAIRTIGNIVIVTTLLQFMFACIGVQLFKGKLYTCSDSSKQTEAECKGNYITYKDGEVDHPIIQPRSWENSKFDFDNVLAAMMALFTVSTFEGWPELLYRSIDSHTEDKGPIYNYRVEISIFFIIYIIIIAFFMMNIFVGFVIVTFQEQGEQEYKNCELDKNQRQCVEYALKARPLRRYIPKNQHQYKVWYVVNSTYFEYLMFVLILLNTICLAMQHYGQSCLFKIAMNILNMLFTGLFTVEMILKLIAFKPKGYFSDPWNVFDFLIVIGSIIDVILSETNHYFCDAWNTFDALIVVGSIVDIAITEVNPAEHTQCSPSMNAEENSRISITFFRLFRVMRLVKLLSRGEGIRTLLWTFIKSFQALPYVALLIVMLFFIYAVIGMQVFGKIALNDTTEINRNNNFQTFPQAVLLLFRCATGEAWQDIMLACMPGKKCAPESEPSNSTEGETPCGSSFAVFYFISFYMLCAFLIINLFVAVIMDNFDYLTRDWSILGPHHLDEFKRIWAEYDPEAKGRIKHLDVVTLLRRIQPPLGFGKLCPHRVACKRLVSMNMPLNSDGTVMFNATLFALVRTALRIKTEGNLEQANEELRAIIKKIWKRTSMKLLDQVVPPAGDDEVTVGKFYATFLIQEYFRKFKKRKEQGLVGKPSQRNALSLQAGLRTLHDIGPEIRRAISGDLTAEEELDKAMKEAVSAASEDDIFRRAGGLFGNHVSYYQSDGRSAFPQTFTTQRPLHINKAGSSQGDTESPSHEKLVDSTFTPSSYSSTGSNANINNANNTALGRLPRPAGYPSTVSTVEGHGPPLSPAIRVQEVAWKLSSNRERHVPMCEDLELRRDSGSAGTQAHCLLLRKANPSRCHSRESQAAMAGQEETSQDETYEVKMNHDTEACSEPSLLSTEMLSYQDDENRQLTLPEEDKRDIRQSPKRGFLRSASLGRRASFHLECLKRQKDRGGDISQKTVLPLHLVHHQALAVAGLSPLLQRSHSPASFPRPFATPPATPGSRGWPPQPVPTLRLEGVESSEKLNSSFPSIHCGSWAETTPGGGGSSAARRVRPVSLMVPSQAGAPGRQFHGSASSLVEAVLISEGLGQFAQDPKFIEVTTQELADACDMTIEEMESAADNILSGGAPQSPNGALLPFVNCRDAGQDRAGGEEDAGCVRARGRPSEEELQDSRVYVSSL
smiles,measurement,setting,value
Nc1ncc(-c2ccc(C(=O)N3CCC(N)C3)cc2)nc1-c1ccc(C(F)(F)F)cc1 (stereo not drawn),EC50,[1],1.6 nM
Cc1cc(Nc2ccc(S(F)(F)(F)(F)F)cc2)n2nc(C(C)(F)F)nc2n1 [DSM-265],IC50,[2],1590 to 6980 nM
same,EC50,Plasmodium falciparum [3],7 to 16 nM
same,Time,Plasmodium falciparum [4],85 h
same,Time,Plasmodium falciparum [5],82 h
same,EC50,Plasmodium falciparum [6],0.0057 µg/mL
same,EC50,Plasmodium cynomolgi [7],0.13 µg/mL
same,MIC,Plasmodium falciparum [8],13 mg/kg
same,ED90,Plasmodium falciparum [8]; [65],3 mg/kg
same,MIC,Plasmodium falciparum [9],6.4 mg/kg
same,ED90,Plasmodium falciparum [9]; [65],1.5 mg/kg
same,half-life,[10],10 to 45 h
same,half-life,[11],10 to 45 h
same,clearance,[12],0.367 to 0.9 mL/min/kg
same,clearance,[13],0.367 to 0.9 mL/min/kg
same,AUC,[14],16.7 to 46.9 µg·h/mL
same,AUC,[15],16.7 to 46.9 µg·h/mL
same,Cmax,[16],1310 to 34800 ng/mL
same,Tmax,[17],1.5 to 4 h
same,half-life,[18],86 to 118 h
same,AUC(0-inf),[19],107 to 4720 µg·h/mL
same,T1/2,Plasmodium falciparum [20],9.4 h
same,MIC,Plasmodium falciparum [21],1.04 µg/mL
same,Activity,Plasmodium falciparum [22],100%
same,Activity,Plasmodium falciparum [23],100%
same,Activity,Plasmodium falciparum [24],100%
same,Activity,Plasmodium falciparum [25],88%
same,T1/2,Plasmodium falciparum [26],5 h
same,EC50,Plasmodium falciparum [27],918 nM
same,EC50,Plasmodium vivax [28],190 nM
same,EC50,Plasmodium vivax [29],529 nM
same,EC50,[30],20 nM
CS(=O)(=O)c1ccc(-c2cnc(N)c(-c3ccc(C(F)(F)F)nc3)c2)cc1 [MMV-048],EC50,Plasmodium cynomolgi [31],64 nM
same,EC50,Plasmodium cynomolgi [32],61 nM
same,IC50,[33],3.4 nM
same,EC50,Plasmodium cynomolgi [34],> 10000 nM
same,EC50,Plasmodium falciparum [35],214 nM
same,EC50,Plasmodium falciparum [36],140 nM
same,EC50,Plasmodium falciparum [37],90 nM
same,EC50,Plasmodium falciparum [38],111 nM
same,Activity,Plasmodium falciparum [39],>25%
same,Activity,Plasmodium berghei,98 - 99.5%
same,ED90,Plasmodium falciparum [40],0.57 mg/kg
same,ED99,Plasmodium falciparum [40],1.1 mg/kg
same,clearance,[41],0.6 mL/min/kg
same,clearance,[42],3 mL/min/kg
same,clearance,[43],6.5 mL/min/kg
same,Vd,[44],1.3 to 3 L/kg
same,Vd,[45],1.3 to 3 L/kg
same,Vd,[46],1.3 to 3 L/kg
same,half-life,[47],58 h
same,half-life,[48],56 h
same,half-life,[49],5.6 h
same,half-life,[50],9.2 h
same,bioavailability,[51],45%
same,bioavailability,[52],74%
same,clearance,[53],0.333 mL/min
same,Vd,[54],2.8 L/kg
same,half-life,[55],90 h
same,IC50,[56],> 10000 nM
same,IC50,[57],> 10000 nM
same,AUC(0-inf),[58],2.14 to 156 µg·h/mL
same,half-life,[59],163 to 252 h
same,AUC,[60],29 µg·h/mL
same,AUC,[61],21.1 µg·h/mL
same,half-life,[62],210 h
same,half-life,[63],193 h
same,EC50,Plasmodium falciparum [64],24 nM
